Where two headings read alike, the source gives them in different places.
Test system: Neisseria gonorrhoeae
Assay: MIC, microbroth dilution, G77L medium
Format: cell-based

O=C(Nc1nnc(-c2ccc(F)cc2)o1)N1CCc2ccccc2C1 [MBX-4132]
0.333 µg/mL: MIC (Neisseria gonorrhoeae, read-out: MIC GEOMEAN, strain WHO P, geomean of replicates)
0.213 µg/mL: MIC (Neisseria gonorrhoeae, ATCC700719, read-out: MIC GEOMEAN, strain ATCC 700719, geomean of replicates)
0.34 µg/mL: MIC90 (Neisseria gonorrhoeae, read-out: N. gonorrhoeae MIC90) | MIC (Neisseria gonorrhoeae, strain CDC-0176) | MIC (Neisseria gonorrhoeae, strain CDC-0178, TET) | MIC (Neisseria gonorrhoeae, strain CDC-0183, CIP, PEN, TET) | MIC (Neisseria gonorrhoeae, strain CDC-0187, CIP, PEN, TET)
0.085 µg/mL: MIC (Neisseria gonorrhoeae, read-out: MIC GEOMEAN, strain CDC-0175, geomean of replicates) | MIC (Neisseria gonorrhoeae, read-out: MIC GEOMEAN, strain CDC-0179, geomean of replicates) | MIC (Neisseria gonorrhoeae, strain CDC-0175, replicates 1-3) | MIC (Neisseria gonorrhoeae, strain CDC-0179, replicates 1-3)
0.269 µg/mL: MIC (Neisseria gonorrhoeae, read-out: MIC GEOMEAN, strain CDC-0185, geomean of replicates)
0.14 µg/mL: MIC (Neisseria gonorrhoeae, strain MMX 6746, CIP, by Micromyx)
0.17 µg/mL: MIC (Neisseria gonorrhoeae, strain CDC-0166, CIP, PEN, TET) | MIC (Neisseria gonorrhoeae, strain CDC-0169, CIP, PEN, TET) | MIC (Neisseria gonorrhoeae, strain CDC-0170, CIP, PEN, TET) | MIC (Neisseria gonorrhoeae, strain CDC-0171, CIP, PEN, TET) | MIC (Neisseria gonorrhoeae, strain CDC-0172, CIP, PEN, TET) | MIC (Neisseria gonorrhoeae, strain CDC-0173, CIP, PEN, TET) | MIC (Neisseria gonorrhoeae, strain CDC-0174, CIP, PEN, TET) | MIC (Neisseria gonorrhoeae, strain CDC-0177, CIP, PEN, TET) | MIC (Neisseria gonorrhoeae, strain CDC-0180) | MIC (Neisseria gonorrhoeae, strain CDC-0181, CIP, PEN, TET) | MIC (Neisseria gonorrhoeae, strain CDC-0182, TET) | MIC (Neisseria gonorrhoeae, strain CDC-0184, CIP, PEN, TET) | MIC (Neisseria gonorrhoeae, strain CDC-0186, CIP, PEN, TET) | MIC (Neisseria gonorrhoeae, strain CDC-0188, CIP, PEN) | MIC (Neisseria gonorrhoeae, strain CDC-0190, CIP, PEN, TET) | MIC (Neisseria gonorrhoeae, strain HO41, PEN, TET, CFM, CRO, LVX)
0.132 µg/mL: MIC (Neisseria gonorrhoeae, read-out: MIC GEOMEAN, strain WHO G, geomean of replicates) | MIC (Neisseria gonorrhoeae, read-out: MIC GEOMEAN, strain WHO M, geomean of replicates) | MIC (Neisseria gonorrhoeae, read-out: MIC GEOMEAN, strain WHO O, geomean of replicates) | MIC (Neisseria gonorrhoeae, read-out: MIC GEOMEAN, strain WHO U, geomean of replicates) | MIC (Neisseria gonorrhoeae, read-out: MIC GEOMEAN, strain WHO W, geomean of replicates)
0.169 µg/mL: MIC (Neisseria gonorrhoeae, ATCC49226, Neisseria gonorrhoeae ATCC 49226, source data, individual replicates) | MIC (Neisseria gonorrhoeae, ATCC49226, strain ATCC 49226, replicates 1-3) | MIC (Neisseria gonorrhoeae, ATCC700719, strain ATCC 700719, replicates 1-3) | MIC (Neisseria gonorrhoeae, read-out: MIC GEOMEAN, strain CDC-0166, geomean of replicates) | MIC (Neisseria gonorrhoeae, read-out: MIC GEOMEAN, strain CDC-0169, geomean of replicates) | MIC (Neisseria gonorrhoeae, read-out: MIC GEOMEAN, strain CDC-0170, geomean of replicates) | MIC (Neisseria gonorrhoeae, read-out: MIC GEOMEAN, strain CDC-0171, geomean of replicates) | MIC (Neisseria gonorrhoeae, read-out: MIC GEOMEAN, strain CDC-0172, geomean of replicates) | MIC (Neisseria gonorrhoeae, read-out: MIC GEOMEAN, strain CDC-0173, geomean of replicates) | MIC (Neisseria gonorrhoeae, read-out: MIC GEOMEAN, strain CDC-0174, geomean of replicates) | MIC (Neisseria gonorrhoeae, read-out: MIC GEOMEAN, strain CDC-0177, geomean of replicates) | MIC (Neisseria gonorrhoeae, read-out: MIC GEOMEAN, strain CDC-0180, geomean of replicates) | MIC (Neisseria gonorrhoeae, read-out: MIC GEOMEAN, strain CDC-0181, geomean of replicates) | MIC (Neisseria gonorrhoeae, read-out: MIC GEOMEAN, strain CDC-0182, geomean of replicates) | MIC (Neisseria gonorrhoeae, read-out: MIC GEOMEAN, strain CDC-0184, geomean of replicates) | MIC (Neisseria gonorrhoeae, read-out: MIC GEOMEAN, strain CDC-0186, geomean of replicates) | MIC (Neisseria gonorrhoeae, read-out: MIC GEOMEAN, strain CDC-0188, geomean of replicates) | MIC (Neisseria gonorrhoeae, read-out: MIC GEOMEAN, strain CDC-0190, geomean of replicates) | MIC (Neisseria gonorrhoeae, read-out: MIC GEOMEAN, strain HO41, geomean of replicates) | MIC (Neisseria gonorrhoeae, strain CDC-0166, replicates 1-3) | MIC (Neisseria gonorrhoeae, strain CDC-0167, replicates 1-3) | MIC (Neisseria gonorrhoeae, strain CDC-0169, replicates 1-3) | MIC (Neisseria gonorrhoeae, strain CDC-0170, replicates 1-3) | MIC (Neisseria gonorrhoeae, strain CDC-0171, replicates 1-3) | MIC (Neisseria gonorrhoeae, strain CDC-0172, replicates 1-3) | MIC (Neisseria gonorrhoeae, strain CDC-0173, replicates 1-3) | MIC (Neisseria gonorrhoeae, strain CDC-0174, replicates 1-3) | MIC (Neisseria gonorrhoeae, strain CDC-0177, replicates 1-3) | MIC (Neisseria gonorrhoeae, strain CDC-0180, replicates 1-3) | MIC (Neisseria gonorrhoeae, strain CDC-0181, replicates 1-3) | MIC (Neisseria gonorrhoeae, strain CDC-0182, replicates 1-3) | MIC (Neisseria gonorrhoeae, strain CDC-0184, replicates 1-3) | MIC (Neisseria gonorrhoeae, strain CDC-0186, replicates 1-3) | MIC (Neisseria gonorrhoeae, strain CDC-0188, replicates 1-3) | MIC (Neisseria gonorrhoeae, strain CDC-0189, replicates 1-3) | MIC (Neisseria gonorrhoeae, strain CDC-0190, replicates 1-3) | MIC (Neisseria gonorrhoeae, strain HO41, replicates 1-3)
0.066 µg/mL: MIC (Neisseria gonorrhoeae, read-out: MIC GEOMEAN, strain WHO F, geomean of replicates)
0.21 µg/mL: MIC (Neisseria gonorrhoeae, ATCC700719, strain ATCC 700719, SPT) | MIC (Neisseria gonorrhoeae, read-out: MIC GEOMEAN, strain WHO X, geomean of replicates) | MIC (Neisseria gonorrhoeae, read-out: MIC GEOMEAN, strain WHO Y, geomean of replicates)
0.68 µg/mL: MIC (Neisseria gonorrhoeae, strain CDC-0165, CIP, PEN, TET)
0.13 µg/mL: MIC (Neisseria gonorrhoeae, ATCC49226, strain ATCC 49226, type strain) | MIC (Neisseria gonorrhoeae, strain CDC-0167) | MIC (Neisseria gonorrhoeae, strain CDC-0189, CIP, PEN, TET)
0.08459 µg/mL: MIC (Neisseria gonorrhoeae ATCC 49226, source data, individual replicates)
0.27 µg/mL: MIC (Neisseria gonorrhoeae, ATCC49226, strain MMX ATCC 49226, broth dilution by Micromyx) | MIC (Neisseria gonorrhoeae, strain CDC-0185, CIP, PEN, TET) | MIC (Neisseria gonorrhoeae, strain MMX 6744, broth dilution by Micromyx)
0.338 µg/mL: MIC (Neisseria gonorrhoeae, read-out: MIC GEOMEAN, strain CDC-0176, geomean of replicates) | MIC (Neisseria gonorrhoeae, read-out: MIC GEOMEAN, strain CDC-0178, geomean of replicates) | MIC (Neisseria gonorrhoeae, read-out: MIC GEOMEAN, strain CDC-0183, geomean of replicates) | MIC (Neisseria gonorrhoeae, read-out: MIC GEOMEAN, strain CDC-0187, geomean of replicates) | MIC (Neisseria gonorrhoeae, strain CDC-0176, replicates 1-3) | MIC (Neisseria gonorrhoeae, strain CDC-0178, replicates 1-3) | MIC (Neisseria gonorrhoeae, strain CDC-0183, replicates 1-3) | MIC (Neisseria gonorrhoeae, strain CDC-0185, replicates 1-3) | MIC (Neisseria gonorrhoeae, strain CDC-0187, replicates 1-3)
0.264 µg/mL: MIC (Neisseria gonorrhoeae, read-out: MIC GEOMEAN, strain WHO K, geomean of replicates) | MIC (Neisseria gonorrhoeae, read-out: MIC GEOMEAN, strain WHO L, geomean of replicates) | MIC (Neisseria gonorrhoeae, read-out: MIC GEOMEAN, strain WHO N, geomean of replicates) | MIC (Neisseria gonorrhoeae, read-out: MIC GEOMEAN, strain WHO V, geomean of replicates) | MIC (Neisseria gonorrhoeae, read-out: MIC GEOMEAN, strain WHO Z, geomean of replicates)
0.18 µg/mL: MIC (Neisseria gonorrhoeae, read-out: N. gonorrhoeae H041 MIC, strain H041, Fig. 1B)
0.134 µg/mL: MIC (Neisseria gonorrhoeae, ATCC49226, read-out: MIC GEOMEAN, strain ATCC 49226, geomean of replicates) | MIC (Neisseria gonorrhoeae, read-out: MIC GEOMEAN, strain CDC-0167, geomean of replicates) | MIC (Neisseria gonorrhoeae, read-out: MIC GEOMEAN, strain CDC-0189, geomean of replicates)
0.677 µg/mL: MIC (Neisseria gonorrhoeae, read-out: MIC GEOMEAN, strain CDC-0165, geomean of replicates) | MIC (Neisseria gonorrhoeae, strain CDC-0165, replicates 1-3)
0.042 µg/mL: MIC (Neisseria gonorrhoeae, ATCC700825, read-out: MIC GEOMEAN, strain ATCC 700825, geomean of replicates) | MIC (Neisseria gonorrhoeae, ATCC700825, strain ATCC 700825, replicates 1-3) | MIC (Neisseria gonorrhoeae, BAA1846, read-out: MIC GEOMEAN, strain BAA-1846, geomean of replicates) | MIC (Neisseria gonorrhoeae, BAA1846, strain BAA-1846, replicates 1-3)
0.04 µg/mL: MIC (Neisseria gonorrhoeae, ATCC700825, strain ATCC 700825, STR) | MIC (Neisseria gonorrhoeae, BAA1846, strain BAA-1846, TET)
0.08 µg/mL: MIC (Neisseria gonorrhoeae, strain CDC-0175, CIP, PEN, TET) | MIC (Neisseria gonorrhoeae, strain CDC-0179, CIP, PEN, TET)
0.53 µg/mL: MIC90 (Neisseria gonorrhoeae, read-out: MIC90 (n))

Source: article PMC7979765, “trans-Translation inhibitors bind to a novel site on the ribosome and clear Neisseria gonorrhoeae in vivo” (Nature Communications, 2021)
